Values quoted from earlier work, collected in patent publication US20140107130A1, “Oral Solution Formulations of Aripiprazole” (Antrim Pharmaceuticals, LLC, priority 2012, published 2014).

Columns and labels:
[1] = room temperature
[2] = intramuscular (IM) injectable solution; many water-miscible co-solvent and water-immiscible solvent/co-solvent systems

aqueous solubility [1]: < 1 µg/mL
Structure (SMILES): O=C1CCc2ccc(OCCCCN3CCN(c4cccc(Cl)c4Cl)CC3)cc2N1 [Aripiprazole]
tissue irritation at the muscular site [2]: unacceptable (moderate to severe) tissue irritation
